Reference: US20110275675A1, “Antimicrobial Dental Materials” (IVOCLAR VIVADENT AG, priority 2010, published 2011)
Entries after “also recorded” stand apart in the source; their conditions may differ.

Key:
[1] = Through-curing depth of light-curing composite filling material; format: physicochemical; conditions: 3.0 or 5.0 wt.-%
Protocol: A composite filling material with the following composition was prepared:
3.0 wt.-% or 5.0 wt.-% of the antimicrobial active ingredient of formula (Ia) was incorporated into the composite filling material. After 20 s exposure to light with a dental polymerization light (Bluephase®, Ivoclar Vivadent AG), the through-curing depth was determined. For comparison, the antimicrobial active ingredients triclosan and chlorhexidine diacetate were also incorporated into the composite material in a quantity of 3.0 wt.-% or 5.0 wt.-% and the through-curing depth determined (see Table 5 for results).

[2] = Shore D hardness of temporary filling material (Fermit); format: physicochemical; conditions: 0.2 or 0.5 wt.-%
Protocol: (§1) 0.2 wt.-% or 0.5 wt.-% of the antimicrobial active ingredient of formula (Ia) was incorporated into the commercially available composite-based temporary filling material Fermit (Ivoclar Vivadent AG). […] The Shore D hardness was then determined (see Table 4 for results).

[3] = Influence on radical polymerization: chemical hardening of Systemp.link; format: physicochemical; conditions: 3.0 wt.-%
Protocol: 3.0 wt.-% triclosan or 3.0 wt.-% of the antimicrobial active ingredient of formula (Ia) was incorporated into the base paste of the commercially available composite-based temporary fixing cement Systemp.link (Ivoclar Vivadent AG), which hardens radically. The processing time (PT), setting time (ST) and Shore D hardness in the case of chemical hardening were then determined.

[4] = Hardening properties of temporary cement based on polycarboxylate/zinc oxide (Systemp.cem); format: physicochemical; conditions: 0.3 or 3.0 wt.-%
Protocol: (§2) 0.3 wt.-% or 3.0 wt.-% of the antimicrobial active ingredient of formula (Ia) was incorporated into the initiator paste of the commercially available temporary fixing cement based on polycarboxylate/zinc oxide Systemp.cem (Ivoclar Vivadent AG). The processing time (PT), setting time (ST) and Shore D hardness were then determined.

[5] = Hardening on exposure to dental polymerization light; format: physicochemical; conditions: 20 s exposure to light (Bluephase); 0.2 or 0.5 wt.-% Ia in Fermit
Protocol: as §1

Streptococcus mutans = experiment: Agar plate zone of inhibition test; format: cell-based, S. mutans DSM20723; conditions: 24 h at 37° C./5% CO2
From the text: To determine the antimicrobial action of a temporary dental cement with the active ingredient of formula (Ia), 3.0 wt.-% of the active ingredient of formula (Ia) was incorporated into the commercially available cement Systemp.link (Ivoclar Vivadent AG). Round testpieces with a diameter of 10 mm and a thickness of 2 mm were then shaped into small plates with the corresponding material and then cured. Testpieces made of Systemp.link without active ingredient and also with 1.0 and 3.0 wt.-% triclosan served as reference. After this, the antimicrobial action on the bacterial strain Streptococcus mutans was studied. The agar plate zone of inhibition test was used for this.
Bacterial strain: S. mutans DSM20723 Cultivation medium: BHI broth
100 μl undiluted S. mutans culture solution was plated out onto agar plates. The testpieces were then placed on the agar plates. After 24 h storage at 37° C./5% CO2, the plates were assessed.

[6] = Hardening properties of composite-based temporary cement (Systemp.link); format: physicochemical; conditions: 0.3 or 3.0 wt.-%
Protocol: as §2, with “base” for “initiator”, “available composite-based” for “available”, “Systemp.link” for “based on polycarboxylate/zinc oxide Systemp.cem”

[7] = 3.0 wt.-% active ingredient in cured Systemp.link small plates

| Hardening after exposure to light [5] | Structure (SMILES) | Influence on the through-curing depth of the composite material [1] | Influence on the hardening of Fermit [2] | Influence on the chemical hardening of Systemp.link [3] | Influence on the hardening of Systemp.cem [4] | Formation of zones of inhibition (Streptococcus mutans; [7]) | Influence on the hardening of Systemp.link [6] | Formation of zones of inhibition (Streptococcus mutans; 1.0 wt.-% active ingredient in cured Systemp.link small plates) |
| --- | --- | --- | --- | --- | --- | --- | --- | --- |
|  | CC(=O)O.CC(=O)O.NC(=N\CCCCCC/N=C(N)/N=C(\N)Nc1ccc(Cl)cc1)/N=C(\N)Nc1ccc(Cl)cc1 [chlorhexidine diacetate] | dramatically reduced |  |  |  |  |  |  |
| hardened completely | CCCCCCCCNc1cc[n+](CCCCCCCCCC[n+]2ccc(NCCCCCCCC)cc2)cc1 [Ia] | does not have a significant negative influence | does not have a significant negative influence | does not have a significant negative influence | does not have a significant negative influence | clear zones of inhibition | does not have a significant negative influence |  |
|  | Oc1cc(Cl)ccc1Oc1ccc(Cl)cc1Cl [triclosan, 2,4,4′-trichloro-2′-hydroxydiphenylether] | dramatically reduced |  | completely inhibited |  | does not bring about a formation of zones of inhibition; also recorded: zones of inhibition do not form |  | does not bring about a formation of zones of inhibition; also recorded: zones of inhibition do not form |
